The NIST ThermoML archive (doi:10.1016/j.jct.2004.04.010)
Numbers after ± are expanded uncertainties.

Experiment: mn = molality of the nth substance listed, in mol/kg
Settings: 298.15 K, 101.3 kPa, Liquid

| mass density (m1 = 0.2) [kg/m3] | mass density (m1 = 0.4) [kg/m3] | mass density (m1 = 0.6) [kg/m3] | mass density (m1 = 0.8) [kg/m3] | mass density (m1 = 1) [kg/m3] | mass density (m1 = 1.2) [kg/m3] | mass density (m1 = 0.015) [kg/m3] | mass density (m1 = 0.03) [kg/m3] | mass density (m1 = 0.05) [kg/m3] | mass density (m1 = 0.075) [kg/m3] | mass density (m1 = 0.1) [kg/m3] | Structure (SMILES) |
| --- | --- | --- | --- | --- | --- | --- | --- | --- | --- | --- | --- |
| 1010.68 ± 0.22 | 1023.7 ± 0.28 | 1036.15 ± 0.33 | 1047.98 ± 0.39 | 1059.4 ± 0.45 | 1070.22 ± 0.5 |  |  |  |  |  | O=C[C@H](O)[C@@H](O)[C@@H](O)[C@H](O)CO [(+)-galactose] + O |
| 1008.06 ± 0.2 | 1018.64 ± 0.22 | 1028.67 ± 0.23 | 1038.38 ± 0.24 | 1047.69 ± 0.24 | 1056.36 ± 0.27 |  |  |  |  |  | O=C[C@@H](O)[C@H](O)[C@H](O)CO [D-(-)-arabinose] + O |
| 1007.72 ± 0.21 | 1017.95 ± 0.26 | 1027.8 ± 0.3 | 1037.28 ± 0.35 | 1046.38 ± 0.39 | 1055.19 ± 0.44 |  |  |  |  |  | O=C[C@H](O)[C@@H](O)[C@H](O)CO [D-xylose] + O |
|  |  |  |  |  |  | 998.969 ± 0.14 | 1000.88 ± 0.14 | 1003.43 ± 0.14 | 1006.61 ± 0.14 | 1009.77 ± 0.15 | [Cl-].[Cs+] [cesium chloride] + O |
